# Tests used:
# Assay in all cases: cell-free kinase assay
# Format in all cases: biochemical
# CHK1 = molecular target: T1, CHK1 (Homo sapiens, UniProt O14757); conditions: single inhibitor concentration
# T1 construct: purchased Carna Biosciences
# Description: (§1) We investigated the potency and selectivity of BI 10N against 56 kinases using a cell-free assay (Table 8A).
# (§2) The selectivity of this inhibitor was investigated by testing the potency of the inhibitor at two concentrations with 53 kinases by Carna Biosciences (MA) (Table 2).
# TSSK1 = molecular target: T2, TSSK1 (Homo sapiens, UniProt Q9BXA7)
# T2 construct: purchased Carna Biosciences
# T2 sequence (Q9BXA7 whole entry): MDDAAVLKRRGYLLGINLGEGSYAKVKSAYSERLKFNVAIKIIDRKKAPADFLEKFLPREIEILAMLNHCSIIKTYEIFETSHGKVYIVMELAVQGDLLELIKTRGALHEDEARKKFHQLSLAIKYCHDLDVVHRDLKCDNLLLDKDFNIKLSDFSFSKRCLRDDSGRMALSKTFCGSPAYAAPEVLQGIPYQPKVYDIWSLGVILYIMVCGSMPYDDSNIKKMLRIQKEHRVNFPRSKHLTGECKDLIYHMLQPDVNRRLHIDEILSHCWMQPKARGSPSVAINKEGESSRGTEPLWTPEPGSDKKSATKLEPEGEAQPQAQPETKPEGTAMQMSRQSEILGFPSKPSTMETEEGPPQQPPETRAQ
# Description: as §1, §2
# NEK2 = molecular target: T3, NEK2 (Homo sapiens, UniProt P51955); conditions: single inhibitor concentration
# T3 construct: purchased Carna Biosciences
# Description: as §1, §2
# SGK = molecular target: T4, SGK (Homo sapiens, UniProt O00141); conditions: single inhibitor concentration
# T4 construct: purchased Carna Biosciences
# T4 sequence (O00141 whole entry): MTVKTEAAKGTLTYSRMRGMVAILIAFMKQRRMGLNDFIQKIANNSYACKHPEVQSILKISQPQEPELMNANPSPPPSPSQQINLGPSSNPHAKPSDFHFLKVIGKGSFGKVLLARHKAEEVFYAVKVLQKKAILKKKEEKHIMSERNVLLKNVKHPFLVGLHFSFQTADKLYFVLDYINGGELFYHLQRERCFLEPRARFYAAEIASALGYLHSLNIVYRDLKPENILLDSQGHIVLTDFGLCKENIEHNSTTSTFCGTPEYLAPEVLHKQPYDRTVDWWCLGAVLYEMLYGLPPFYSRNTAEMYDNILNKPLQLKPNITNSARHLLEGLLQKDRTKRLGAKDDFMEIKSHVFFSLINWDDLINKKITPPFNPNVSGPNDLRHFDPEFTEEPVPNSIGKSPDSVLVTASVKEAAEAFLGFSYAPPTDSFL
# Description: as §1, §2
# EGFR = molecular target: T5, EGFR (Homo sapiens, UniProt P00533); conditions: single inhibitor concentration
# T5 construct: purchased Carna Biosciences
# T5 sequence (P00533 25-1210): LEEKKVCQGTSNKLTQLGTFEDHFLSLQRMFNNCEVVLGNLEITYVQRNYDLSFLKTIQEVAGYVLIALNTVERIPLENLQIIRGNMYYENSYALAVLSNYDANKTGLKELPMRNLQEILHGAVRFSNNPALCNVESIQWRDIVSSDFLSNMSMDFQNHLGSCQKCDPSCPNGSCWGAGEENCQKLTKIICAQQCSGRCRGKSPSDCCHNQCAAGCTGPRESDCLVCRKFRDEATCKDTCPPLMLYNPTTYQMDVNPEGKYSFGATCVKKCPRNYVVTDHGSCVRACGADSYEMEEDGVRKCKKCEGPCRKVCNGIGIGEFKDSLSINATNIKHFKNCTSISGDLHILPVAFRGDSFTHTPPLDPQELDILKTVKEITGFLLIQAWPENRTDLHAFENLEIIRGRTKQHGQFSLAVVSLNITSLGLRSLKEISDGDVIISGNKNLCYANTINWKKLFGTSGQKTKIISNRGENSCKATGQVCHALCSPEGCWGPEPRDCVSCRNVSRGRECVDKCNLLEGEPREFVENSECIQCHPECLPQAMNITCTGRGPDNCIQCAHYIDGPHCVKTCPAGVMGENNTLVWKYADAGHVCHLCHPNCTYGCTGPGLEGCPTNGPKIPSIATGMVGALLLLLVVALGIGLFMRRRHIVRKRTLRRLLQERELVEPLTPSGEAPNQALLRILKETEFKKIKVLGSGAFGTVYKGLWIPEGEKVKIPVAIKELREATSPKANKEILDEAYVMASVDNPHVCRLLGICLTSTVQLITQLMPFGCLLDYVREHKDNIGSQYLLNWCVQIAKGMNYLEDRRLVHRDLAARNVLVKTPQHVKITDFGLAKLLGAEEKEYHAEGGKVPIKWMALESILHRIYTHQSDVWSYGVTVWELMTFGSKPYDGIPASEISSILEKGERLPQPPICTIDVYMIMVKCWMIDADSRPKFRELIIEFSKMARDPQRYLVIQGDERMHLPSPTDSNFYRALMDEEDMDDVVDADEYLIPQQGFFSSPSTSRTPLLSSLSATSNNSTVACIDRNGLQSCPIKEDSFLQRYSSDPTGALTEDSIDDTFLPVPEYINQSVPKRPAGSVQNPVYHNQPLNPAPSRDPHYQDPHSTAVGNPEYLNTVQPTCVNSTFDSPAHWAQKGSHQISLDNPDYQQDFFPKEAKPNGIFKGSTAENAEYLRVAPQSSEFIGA
# Description: as §1, §2
# p38α = molecular target: T6, p38α (Homo sapiens, UniProt Q16539); conditions: single inhibitor concentration
# T6 construct: purchased Carna Biosciences
# Description: as §1, §2
# HGK = molecular target: T7, HGK (Homo sapiens, UniProt O95819)
# T7 construct: purchased Carna Biosciences
# T7 sequence (O95819 whole entry): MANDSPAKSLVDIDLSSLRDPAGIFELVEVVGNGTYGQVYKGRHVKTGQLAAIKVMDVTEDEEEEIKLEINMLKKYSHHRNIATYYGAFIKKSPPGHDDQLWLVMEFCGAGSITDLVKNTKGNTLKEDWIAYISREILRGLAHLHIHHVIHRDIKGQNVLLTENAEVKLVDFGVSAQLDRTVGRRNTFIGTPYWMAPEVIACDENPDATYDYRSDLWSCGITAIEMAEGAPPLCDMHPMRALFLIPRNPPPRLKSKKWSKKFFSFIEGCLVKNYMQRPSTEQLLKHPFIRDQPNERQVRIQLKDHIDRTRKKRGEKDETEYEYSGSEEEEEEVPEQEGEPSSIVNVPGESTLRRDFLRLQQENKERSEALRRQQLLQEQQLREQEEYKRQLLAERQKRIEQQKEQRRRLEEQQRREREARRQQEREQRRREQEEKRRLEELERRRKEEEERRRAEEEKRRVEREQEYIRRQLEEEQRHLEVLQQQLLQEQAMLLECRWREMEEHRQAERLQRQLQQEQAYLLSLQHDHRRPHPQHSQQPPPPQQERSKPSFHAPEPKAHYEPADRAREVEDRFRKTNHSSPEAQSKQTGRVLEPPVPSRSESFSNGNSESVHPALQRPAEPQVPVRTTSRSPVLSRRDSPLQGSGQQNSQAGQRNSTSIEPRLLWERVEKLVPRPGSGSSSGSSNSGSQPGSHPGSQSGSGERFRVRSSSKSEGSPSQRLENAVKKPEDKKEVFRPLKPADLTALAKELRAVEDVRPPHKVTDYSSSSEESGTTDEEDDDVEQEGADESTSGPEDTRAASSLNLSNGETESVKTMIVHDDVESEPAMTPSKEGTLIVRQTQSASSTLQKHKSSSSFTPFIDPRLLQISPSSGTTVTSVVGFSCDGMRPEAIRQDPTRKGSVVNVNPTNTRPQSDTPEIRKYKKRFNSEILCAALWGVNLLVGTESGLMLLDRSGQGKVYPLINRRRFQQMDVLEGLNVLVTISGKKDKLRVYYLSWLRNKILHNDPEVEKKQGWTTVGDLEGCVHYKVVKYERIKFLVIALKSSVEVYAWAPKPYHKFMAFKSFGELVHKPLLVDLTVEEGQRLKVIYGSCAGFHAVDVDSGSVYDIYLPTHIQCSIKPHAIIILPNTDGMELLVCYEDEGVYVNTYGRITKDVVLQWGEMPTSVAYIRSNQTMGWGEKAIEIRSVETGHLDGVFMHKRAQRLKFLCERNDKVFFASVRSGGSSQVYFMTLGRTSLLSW
# Description: as §1, §2
# KDR = molecular target: T8, KDR (Homo sapiens, UniProt P35968); conditions: single inhibitor concentration
# T8 construct: purchased Carna Biosciences
# Description: as §1, §2
# FGR = molecular target: T9, FGR (Homo sapiens, UniProt P09769); conditions: ATP concentration at approximately the Km for ATP
# T9 construct: purchased Carna Biosciences
# T9 sequence (P09769 whole entry): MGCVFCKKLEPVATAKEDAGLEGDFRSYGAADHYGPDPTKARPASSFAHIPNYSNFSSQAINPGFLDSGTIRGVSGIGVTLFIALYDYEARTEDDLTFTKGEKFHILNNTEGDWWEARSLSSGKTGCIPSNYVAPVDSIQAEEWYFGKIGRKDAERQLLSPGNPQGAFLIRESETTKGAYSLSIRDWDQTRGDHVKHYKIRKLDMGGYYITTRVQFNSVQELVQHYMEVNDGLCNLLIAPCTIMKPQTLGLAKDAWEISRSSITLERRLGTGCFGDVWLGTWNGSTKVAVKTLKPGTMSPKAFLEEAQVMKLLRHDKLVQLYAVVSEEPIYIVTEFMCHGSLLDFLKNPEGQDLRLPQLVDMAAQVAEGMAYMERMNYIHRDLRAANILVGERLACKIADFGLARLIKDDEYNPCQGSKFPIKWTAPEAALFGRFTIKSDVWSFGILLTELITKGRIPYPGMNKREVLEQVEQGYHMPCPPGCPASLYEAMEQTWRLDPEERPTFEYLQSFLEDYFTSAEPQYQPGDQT
# Description: as §1, §2
# ITK = molecular target: T10, ITK (Homo sapiens, UniProt Q08881)
# T10 construct: purchased Carna Biosciences
# T10 sequence (Q08881 1-620): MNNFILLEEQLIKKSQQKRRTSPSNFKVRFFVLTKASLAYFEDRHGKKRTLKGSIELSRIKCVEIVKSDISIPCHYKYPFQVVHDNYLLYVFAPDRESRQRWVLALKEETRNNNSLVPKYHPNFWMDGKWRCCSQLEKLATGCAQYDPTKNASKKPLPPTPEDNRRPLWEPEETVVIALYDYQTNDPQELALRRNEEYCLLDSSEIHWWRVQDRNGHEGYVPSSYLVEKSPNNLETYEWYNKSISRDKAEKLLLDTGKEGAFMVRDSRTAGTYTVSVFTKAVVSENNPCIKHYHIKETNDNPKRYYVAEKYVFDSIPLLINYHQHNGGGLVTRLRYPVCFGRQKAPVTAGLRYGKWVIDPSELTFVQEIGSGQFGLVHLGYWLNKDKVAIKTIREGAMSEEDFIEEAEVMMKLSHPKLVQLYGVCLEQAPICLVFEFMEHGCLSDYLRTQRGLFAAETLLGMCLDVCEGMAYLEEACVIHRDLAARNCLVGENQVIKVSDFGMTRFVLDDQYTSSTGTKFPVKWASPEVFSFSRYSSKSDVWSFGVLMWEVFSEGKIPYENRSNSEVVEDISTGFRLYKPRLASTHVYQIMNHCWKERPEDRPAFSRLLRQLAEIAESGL
# Description: as §1, §2
# PKACα = molecular target: T11, PKACα (Homo sapiens, UniProt P17612); conditions: single inhibitor concentration
# T11 construct: purchased Carna Biosciences
# Description: as §1, §2
# SRC = molecular target: T12, SRC (Homo sapiens, UniProt P12931)
# T12 construct: purchased Carna Biosciences
# T12 sequence (P12931 whole entry): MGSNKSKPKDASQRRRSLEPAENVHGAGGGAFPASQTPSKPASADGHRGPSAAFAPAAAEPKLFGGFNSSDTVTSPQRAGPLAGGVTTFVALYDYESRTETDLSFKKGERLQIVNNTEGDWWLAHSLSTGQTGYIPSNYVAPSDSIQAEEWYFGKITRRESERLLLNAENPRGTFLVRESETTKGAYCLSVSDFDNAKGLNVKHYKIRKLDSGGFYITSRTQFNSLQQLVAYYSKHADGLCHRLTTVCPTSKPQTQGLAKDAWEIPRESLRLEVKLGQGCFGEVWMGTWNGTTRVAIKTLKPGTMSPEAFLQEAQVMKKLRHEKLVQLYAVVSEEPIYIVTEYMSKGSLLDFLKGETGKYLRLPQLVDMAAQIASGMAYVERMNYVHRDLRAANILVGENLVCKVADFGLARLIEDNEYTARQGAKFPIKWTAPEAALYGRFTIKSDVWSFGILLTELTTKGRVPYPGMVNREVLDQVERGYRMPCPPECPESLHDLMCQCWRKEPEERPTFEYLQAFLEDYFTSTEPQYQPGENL
# Description: as §1, §2
# CSK = molecular target: T13, CSK (Homo sapiens, UniProt P41240); conditions: single inhibitor concentration
# T13 construct: purchased Carna Biosciences
# T13 sequence (P41240 whole entry): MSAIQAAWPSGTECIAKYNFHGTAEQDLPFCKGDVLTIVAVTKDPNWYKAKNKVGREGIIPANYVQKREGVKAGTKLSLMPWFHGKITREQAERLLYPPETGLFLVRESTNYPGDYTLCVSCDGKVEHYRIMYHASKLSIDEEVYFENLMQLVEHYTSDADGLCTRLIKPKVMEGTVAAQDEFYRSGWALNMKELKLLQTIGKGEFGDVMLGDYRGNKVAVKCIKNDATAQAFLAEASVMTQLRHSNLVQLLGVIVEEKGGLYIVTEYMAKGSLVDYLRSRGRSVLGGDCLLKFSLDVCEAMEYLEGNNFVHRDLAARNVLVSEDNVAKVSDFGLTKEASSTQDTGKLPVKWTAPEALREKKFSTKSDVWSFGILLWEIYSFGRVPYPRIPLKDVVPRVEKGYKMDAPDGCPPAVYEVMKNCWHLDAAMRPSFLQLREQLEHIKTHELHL
# Description: as §1, §2
# LYNa = molecular target: T14, LYNa (Homo sapiens, UniProt P07948); conditions: ATP concentration at approximately the Km for ATP
# T14 construct: purchased Carna Biosciences
# Description: as §1, §2
# ROCK1 = molecular target: T15, ROCK1 (Homo sapiens, UniProt Q13464); conditions: single inhibitor concentration
# T15 construct: purchased Carna Biosciences
# Description: as §1, §2
# PIM1 = molecular target: T16, PIM1 (Homo sapiens, UniProt P11309); conditions: single inhibitor concentration
# T16 construct: purchased Carna Biosciences
# T16 sequence (P11309 whole entry): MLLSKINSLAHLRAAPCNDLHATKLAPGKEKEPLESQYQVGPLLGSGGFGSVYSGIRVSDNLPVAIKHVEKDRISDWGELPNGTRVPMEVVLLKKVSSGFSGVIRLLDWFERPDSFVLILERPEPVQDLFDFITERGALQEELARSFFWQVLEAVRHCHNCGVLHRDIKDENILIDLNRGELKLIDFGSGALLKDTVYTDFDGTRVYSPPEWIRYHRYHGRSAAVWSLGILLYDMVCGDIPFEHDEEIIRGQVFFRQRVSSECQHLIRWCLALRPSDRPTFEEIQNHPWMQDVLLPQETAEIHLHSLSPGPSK
# Description: as §1, §2
# TYRO3 = molecular target: T17, TYRO3 (Homo sapiens, UniProt Q06418); conditions: single inhibitor concentration
# T17 construct: purchased Carna Biosciences
# Description: as §1, §2
structure (smiles),measurement,setting,value
CC(C)C(C)CNCc1ccc2c(c1)[nH]/c(=N\C(=O)c1ccc(C3=CN=NC3)s1)n2CC(C)(C)O (centres unmarked) [BI 10N],inhibition at 0.2 µM,CHK1,60.3%
same,IC50,"TSSK1; Table 2, by Carna Biosciences",28.6 nM
same,inhibition at 0.2 µM,TSSK1; single inhibitor concentration,88.9%
same,inhibition at 0.2 µM,NEK2,0.3%
same,inhibition at 0.2 µM,SGK,1.4%
same,inhibition at 0.2 µM,EGFR,8.6%
same,inhibition at 0.2 µM,p38α,-4.1%
same,IC50,"HGK; Table 2, by Carna Biosciences",12.1 nM
same,inhibition at 0.2 µM,HGK; single inhibitor concentration,100%
same,inhibition at 0.2 µM,KDR,79.3%
same,IC50,FGR,2.89 nM
same,mode of inhibition,ITK; ITK,time-dependent inhibitor
same,IC50,"ITK; ITK, 1 mM ATP, Km ATP 6.1 μM",1.43 nM
same,IC50,"ITK; ITK, ATP at approximately the Km for ATP, more potent than can be measured",< 0.5 nM
same,IC50,"ITK; ITK, Table 2, by Carna Biosciences",0.486 nM
same,Km,"ITK; ITK, calculated from IC50 at 1 mM ATP, read-out: Calculated Apparent Km for BI 10N Binding",0.00865 nM
same,inhibition at 0.2 µM,"ITK; ITK, single inhibitor concentration",107%
same,Ki,"ITK; tight binding studies, read-out: K (affinity for ITK)",0.0086 nM
same,inhibition at 0.2 µM,PKACα,2.5%
same,IC50,"SRC; Table 2, by Carna Biosciences",3.76 nM
same,inhibition at 0.2 µM,SRC; single inhibitor concentration,99.9%
same,inhibition at 0.2 µM,CSK,32.4%
same,IC50,LYNa,36.6 nM
same,inhibition at 0.2 µM,ROCK1,33%
same,inhibition at 0.2 µM,PIM1,10.4%
same,inhibition at 0.2 µM,TYRO3,35.6%
